Consider 28 compounds from patent US10654833B2, “ASK1 isoindolin-1-one inhibitors and methods of use thereof” (Hepatikos Therapeutics, LLC, priority 2018, dated 2020).

The IC50 is the concentration that gives 50% inhibition.

recombinant human ASK1 protein, sequence (Q99683 whole entry): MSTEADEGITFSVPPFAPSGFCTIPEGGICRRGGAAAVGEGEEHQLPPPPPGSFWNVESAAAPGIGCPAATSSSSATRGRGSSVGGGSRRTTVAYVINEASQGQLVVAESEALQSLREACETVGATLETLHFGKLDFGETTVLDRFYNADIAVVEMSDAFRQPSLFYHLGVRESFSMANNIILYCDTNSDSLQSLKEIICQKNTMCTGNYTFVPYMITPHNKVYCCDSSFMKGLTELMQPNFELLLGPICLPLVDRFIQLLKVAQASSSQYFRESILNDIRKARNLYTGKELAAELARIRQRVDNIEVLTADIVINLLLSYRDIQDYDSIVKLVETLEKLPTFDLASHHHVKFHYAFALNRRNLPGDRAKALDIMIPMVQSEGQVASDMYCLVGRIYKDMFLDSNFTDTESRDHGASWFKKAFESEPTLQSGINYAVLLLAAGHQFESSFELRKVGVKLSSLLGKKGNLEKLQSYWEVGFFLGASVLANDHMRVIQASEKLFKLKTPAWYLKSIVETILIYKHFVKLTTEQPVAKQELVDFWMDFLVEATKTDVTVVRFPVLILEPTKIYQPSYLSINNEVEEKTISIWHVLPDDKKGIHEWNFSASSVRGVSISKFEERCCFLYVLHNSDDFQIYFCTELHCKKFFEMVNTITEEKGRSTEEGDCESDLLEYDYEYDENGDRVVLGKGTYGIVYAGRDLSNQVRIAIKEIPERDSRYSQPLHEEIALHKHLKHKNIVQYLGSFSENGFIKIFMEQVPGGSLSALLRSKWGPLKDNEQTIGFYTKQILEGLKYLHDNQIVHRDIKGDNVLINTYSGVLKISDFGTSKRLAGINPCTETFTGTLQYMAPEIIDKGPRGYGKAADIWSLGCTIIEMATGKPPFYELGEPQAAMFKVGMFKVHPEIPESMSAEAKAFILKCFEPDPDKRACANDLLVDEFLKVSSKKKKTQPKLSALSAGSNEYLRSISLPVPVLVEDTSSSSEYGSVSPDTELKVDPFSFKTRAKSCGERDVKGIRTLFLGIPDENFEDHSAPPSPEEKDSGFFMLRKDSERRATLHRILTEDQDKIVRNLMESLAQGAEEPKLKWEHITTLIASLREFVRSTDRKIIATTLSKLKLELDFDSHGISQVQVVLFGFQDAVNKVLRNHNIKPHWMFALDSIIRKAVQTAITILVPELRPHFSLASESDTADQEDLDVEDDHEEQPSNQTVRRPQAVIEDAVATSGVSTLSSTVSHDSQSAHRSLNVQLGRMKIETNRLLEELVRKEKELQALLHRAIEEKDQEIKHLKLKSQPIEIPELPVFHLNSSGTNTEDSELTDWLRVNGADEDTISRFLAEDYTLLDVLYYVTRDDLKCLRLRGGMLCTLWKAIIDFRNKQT

This assay has as its target recombinant human ASK1 protein (Homo sapiens (Human), UniProt Q99683). As to the kind of experiment: ASK1 kinase activity inhibition assay (radiometric 33P incorporation into MBP). It counts as biochemical. Conditions: Table 3; 20 μM MBP, 10 μM 33P-ATP. How it is done: ASK1 Kinase Activity Inhibition Assay
Inhibition of ASK1 kinase activity was determined radiometrically using 33P substrate incorporation (Reaction Biology Corp., Malvern, Pa.). Briefly, recombinant human ASK1 protein, 20 μM substrate (myelin basic protein (MBP)), and compound (diluted from DMSO stock to give 1% final DMSO) were incubated in Base Reaction buffer (20 mM Hepes (pH 7.5), 10 mM MgCl2, 1 mM EGTA, 0.02% Brij35, 0.02 mg/mL BSA, 0.1 mM Na3VO4, 2 mM DTT, 1% DMSO) at room temperature for 20 minutes. The reaction was initiated by addition of 10 μM 33P-ATP (specific activity […]). The reaction was then allowed to proceed for 2 hours at room temperature. Upon reaction termination, the mixture was spotted on P81 exchange paper and kinase activity by incorporation of 33P into MBP substrate was detected by filter-binding method.
Turning to `CC(C)n1cnnc1-c1cccc(N2Cc3ccc(-c4ccc5ncc(C(=O)O)n5c4)cc3C2=O)n1` [Compound 123, 6-(2-(6-(4-Isopropyl-4H-1,2,4-triazol-3-yl)pyridin-2-yl)-3-oxoisoindolin-5-yl)imidazo [1,2-a]pyridine-3-carboxylic Acid], the IC50 amounted to 3.5 nM.
The value for `CC(C)n1cnnc1-c1cccc(N2Cc3ccc(-c4ccc(C(=O)O)c(CO)c4)cc3C2=O)n1` [Compound 83, 2-(Hydroxymethyl)-4-(2-(6-(4-isopropyl-4H-1,2,4-triazol-3-yl)pyridin-2-yl)-3-oxoisoindolin-5-yl)benzoic Acid] was 6.2 nM; that for `CC(C)n1cnnc1-c1cccc(N2Cc3ccc(-c4ccc(CCC(=O)O)cc4)cc3C2=O)n1` [Compound 90, 3-(4-(2-(6-(4-Isopropyl-4H-1,2,4-triazol-3-yl)pyridin-2-yl)-3-oxoisoindolin-5-yl)phenyl)propanoic Acid] was 4.4 nM; that for `CC(C)(C(=O)O)c1ccc(-c2ccc3c(c2)C(=O)N(c2cccc(-c4nncn4C4CC4)n2)C3)cc1` [Compound 53, 2-(4-(2-(6-(4-cyclopropyl-4H-1,2,4-triazol-3-yl)pyridin-2-yl)-3-oxoisoindolin-5-yl)phenyl)-2-methylpropanoic acid] was 2.6 nM.
The value for `COc1ccc(-c2ccc3c(c2)C(=O)N(c2cccc(-c4nncn4C(C)C)n2)C3)cc1C(=O)O` [Compound 96, 5-(2-(6-(4-Isopropyl-4H-1,2,4-triazol-3-yl)pyridin-2-yl)-3-oxoisoindolin-5-yl)-2-methoxybenzoic Acid] was 4.9 nM; that for `CC(C)n1cnnc1-c1cccc(N2Cc3ccc(-c4cc(C(=O)O)ccc4C#N)cc3C2=O)n1` [Compound 14, 4-Cyano-3-(2-(6-(4-isopropyl-4H-1,2,4-triazol-3-yl)pyridin-2-yl)-3-oxoisoindolin-5-yl) Benzoic Acid] was 15.6 nM.
The value for `CC(C)n1cnnc1-c1cccc(N2Cc3ccc(-c4ccc(CO)c(C(=O)O)c4)cc3C2=O)n1` [Compound 35, 2-(Hydroxymethyl)-5-(2-(6-(4-isopropyl-4H-1,2,4-triazol-3-yl)pyridin-2-yl)-3-oxoisoindolin-5-yl)benzoic Acid] was 4 nM; that for `Cc1c(C(=O)O)cc(N)cc1-c1ccc2c(c1)C(=O)N(c1cccc(-c3nncn3C(C)C)n1)C2` [Compound 68, 5-Amino-3-(2-(6-(4-isopropyl-4H-1,2,4-triazol-3-yl)pyridin-2-yl)-3-oxoisoindolin-5-yl)-2-methylbenzoic Acid] was 12.4 nM; that for `O=C(O)CC1CCN(c2ccc3c(c2)C(=O)N(c2cccc(-c4nncn4C4CC4)n2)C3)CC1` [Compound 130, 2-(1-(2-(6-(4-Cyclopropyl-4H-1,2,4-triazol-3-yl)pyridin-2-yl)-3-oxoisoindolin-5-yl)piperidin-4-yl)acetic Acid] was 19.2 nM.
`CC(C)n1cnnc1-c1cccc(N2Cc3ccc(-c4ccc(OCC(=O)O)cc4)cc3C2=O)n1` [Compound 89, 2-(4-(2-(6-(4-Isopropyl-4H-1,2,4-triazol-3-yl)pyridin-2-yl)-3-oxoisoindolin-5-yl)phenoxy) acetic Acid]: the IC50 turned out to be 4.9 nM.
The value for `O=C(O)C1CCCN(c2ccc3c(c2)C(=O)N(c2cccc(-c4nncn4C4CC4)n2)C3)C1` (stereo not shown) [Compound 131, 1-(2-(6-(4-Cyclopropyl-4H-1,2,4-triazol-3-yl)pyridin-2-yl)-3-oxoisoindolin-5-yl)piperidine-3-carboxylic Acid] was 21.7 nM.
The value for `CC(C)n1cnnc1-c1cccc(N2Cc3ccc(-c4ccc5cc(C(=O)O)[nH]c5c4)cc3C2=O)n1` [Compound 61, 6-(2-(6-(4-Isopropyl-4H-1,2,4-triazol-3-yl)pyridin-2-yl)-3-oxoisoindolin-5-yl)-1H-indole-2-carboxylic Acid] was 5.1 nM; that for `CC(C)n1cnnc1-c1cccc(N2Cc3ccc([C@H]4CC[C@@H](C(=O)O)CC4)cc3C2=O)n1` [Compound 127, cis-4-(2-(6-(4-Isopropyl-4H-1,2,4-triazol-3-yl)pyridin-2-yl)-3-oxoisoindolin-5-yl)cyclohexane-1-carboxylic acid] was 14.6 nM.
The value for `CC(C)n1cnnc1-c1cccc(N2Cc3ccc(-c4ccc5nc(C(=O)O)sc5c4)cc3C2=O)n1` [Compound 121, 6-(2-(6-(4-Isopropyl-4H-1,2,4-triazol-3-yl)pyridin-2-yl)-3-oxoisoindolin-5-yl)benzo[d]thiazole-2-carboxylic Acid] was 4.1 nM; that for `CC(C)n1cnnc1-c1cccc(N2Cc3ccc(N4CCC(C(=O)O)CC4)cc3C2=O)n1` [Compound 128, 1-(2-(6-(4-isopropyl-4H-1,2,4-triazol-3-yl)pyridin-2-yl)-3-oxoisoindolin-5-yl)piperidine-4-carboxylic acid] was 6.16 nM.
For the compound `CC(C)n1cnnc1-c1cccc(N2Cc3ccc(-c4ccc(C(C)(C)C(=O)O)cc4F)cc3C2=O)n1` [Compound 41, 2-(3-Fluoro-4-(2-(6-(4-isopropyl-4H-1,2,4-triazol-3-yl)pyridin-2-yl)-3-oxoisoindolin-5-yl)phenyl)-2-methylpropanoic Acid], the IC50 was determined as 4.7 nM.
As for `CC(C)n1cnnc1-c1cccc(N2Cc3ccc(-c4cc(F)cc(C(=O)O)c4F)cc3C2=O)n1` [Compound 97, 2,5-Difluoro-3-(2-(6-(4-isopropyl-4H-1,2,4-triazol-3-yl)pyridin-2-yl)-3-oxoisoindolin-5-yl) Benzoic Acid], the IC50 is 4.7 nM.
Turning to `CC(C)n1cnnc1-c1cccc(N2Cc3ccc(-c4ccc(Cl)cc4C(=O)O)cc3C2=O)n1` [Compound 65, 5-Chloro-2-(2-(6-(4-isopropyl-4H-1,2,4-triazol-3-yl)pyridin-2-yl)-3-oxoisoindolin-5-yl)benzoic Acid], the IC50 was 34.4 nM.
On to `CC(C)n1cnnc1-c1cccc(N2Cc3ccc(-c4ccccc4C(=O)O)cc3C2=O)n1` [Compound 56, 2-(2-(6-(4-Isopropyl-4H-1,2,4-triazol-3-yl)pyridin-2-yl)-3-oxoisoindolin-5-yl)benzoic Acid], for which the IC50 worked out at 42.2 nM.
The value for `O=C(O)c1ccc(F)c(-c2ccc3c(c2)C(=O)N(c2cccc(-c4nncn4C4CC4)n2)C3)c1` [Compound 93, 3-(2-(6-(4-Cyclopropyl-4H-1,2,4-triazol-3-yl)pyridin-2-yl)-3-oxoisoindolin-5-yl)-4-fluorobenzoic Acid] was 12.4 nM; that for `Cc1cc(F)c(C(=O)O)cc1-c1ccc2c(c1)C(=O)N(c1cccc(-c3nncn3C(C)C)n1)C2` [Compound 79, 2-Fluoro-5-(2-(6-(4-isopropyl-4H-1,2,4-triazol-3-yl)pyridin-2-yl)-3-oxoisoindolin-5-yl)-4-methylbenzoic Acid] was 4.6 nM.
For `Cc1cc(-c2ccc3c(c2)C(=O)N(c2cccc(-c4nncn4C(C)C)n2)C3)ccc1C(=O)O` [Compound 73, 4-(2-(6-(4-isopropyl-4H-1,2,4-triazol-3-yl)pyridin-2-yl)-3-oxoisoindolin-5-yl)-2-methyl], the IC50 is 14.3 nM.
The value for `Cc1c(C(=O)O)cccc1-c1ccc2c(c1)C(=O)N(c1cccc(-c3nncn3C(C)C)n1)C2` [Compound 94, 3-(2-(6-(4-Isopropyl-4H-1,2,4-triazol-3-yl)pyridin-2-yl)-3-oxoisoindolin-5-yl)-2-methylbenzoic Acid] was 6.9 nM; that for `Cc1c(F)cc(C(=O)O)cc1-c1ccc2c(c1)C(=O)N(c1cccc(-c3nncn3C(C)C)n1)C2` [Compound 98, 3-Fluoro-5-(2-(6-(4-isopropyl-4H-1,2,4-triazol-3-yl)pyridin-2-yl)-3-oxoisoindolin-5-yl)-4-methylbenzoic Acid] was 4.9 nM; that for `CC(C)n1cnnc1-c1cccc(N2Cc3ccc(-c4ccc(C(=O)O)c(F)c4)cc3C2=O)n1` [Compound 67, 2-Fluoro-4-(2-(6-(4-isopropyl-4H-1,2,4-triazol-3-yl)pyridin-2-yl)-3-oxoisoindolin-5-yl)benzoic Acid] was 5.4 nM.
In the case of `CC(C)n1cnnc1-c1cccc(N2Cc3ccc(-c4ccc(C(=O)O)cc4)cc3C2=O)n1` [Compound 55, 4-(2-(6-(4-Isopropyl-4H-1,2,4-triazol-3-yl)pyridin-2-yl)-3-oxoisoindolin-5-yl)benzoic Acid] it was 5.4 nM; in that of `CC(C)n1cnnc1-c1cccc(N2Cc3ccc(-c4cccc(-c5nn[nH]n5)c4)cc3C2=O)n1` [Compound 37, 6-(3-(2H-Tetrazol-5-yl)phenyl)-2-(6-(4-isopropyl-4H-1,2,4-triazol-3-yl)pyridin-2-yl)isoindolin-1-one], 2.8 nM; in that of `COC(=O)c1ccc(F)c(-c2ccc3c(c2)C(=O)N(c2cccc(-c4nncn4C4CC4)n2)C3)c1` [Compound 101, Methyl 3-(2-(6-(4-cyclopropyl-4H-1,2,4-triazol-3-yl)pyridin-2-yl)-3-oxoisoindolin-5-yl)-4-fluorobenzoate], 3.28 nM.
